Where a SMILES comes first, the peptide text is derived from it. Bridges are numbered along the chain shown (N, C = ends).
Assay: in vivo
Settings: rat; for AUC(0-inf) / C0 / half-life / Cmax / Tmax: male, SD, 0.1 mg/kg
Procedure: Changes in ANP immunoreactivity concentration in plasma when a native ANP and a chimeric peptide (chimeric ANP) to which a half-life-extension peptide was bestowed were administered into vein of rats were investigated.
As a test system, male rats of an SD strain of 7 weeks age (provided from Nippon Charles River) were subjected to the experiment where one group comprised three rats. […] At that time, a rabbit polyclonal antibody (#8) recognizing a ring part of ANP was used as an antibody and ^125I-[Tyr^28] α-hANP was used as a labeling compound.
Pharmacokinetic parameters were calculated from the resulting changes in immunoreactivity concentrations in plasma. At that time, WinNonlin Professional Ver. 4.0.1 (manufactured by Pharsight Corporation, U.S.A.) was used as the analytical software. Method for the calculation of each parameter is mentioned as follows.
Concentration at time 0 (C0; extrapolated value, ng/mL), area under the curve for concentration in plasma vs. time (AUC; ng.min/mL) and quenching half-life (T½; minute(s)) were calculated as follows. C0 was calculated as a value at time by means of extrapolation from the changes in immunoreactivity concentration in plasma at each blood collection period. AUC was calculated by a trapezoidal method using the immunoreactivity concentrations in plasma at all measuring points (t) and an extrapolated value until the infinitive time was determined. T½ was calculated by means of a least-squares method from the inclination of a straight line connecting several points in a disappearing phase of the immunoreactivity concentration in plasma. In the case of a subcutaneous administration, C0 was not determined but the maximum concentration in plasma (Cmax; ng/mL) and the time reaching the maximum concentration in plasma (Tmax; min) were determined.

Compound	AUC(0-inf) (iv)	C0 (iv)	half-life (iv)	AUC(0-inf) (sc)	Cmax (sc)	Tmax (sc)	half-life (sc)	concentration in plasma as compared with the native ANP (iv)	concentration in plasma as compared with the native ANP (sc)
CC[C@H](C)[C@@H]1NC(=O)[C@H](CCCNC(=N)N)NC(=O)[C@H](CC(=O)O)NC(=O)[C@H](CCSC)NC(=O)[C@H](CCCNC(=N)N)NC(=O)CNC(=O)CNC(=O)[C@H](Cc2ccccc2)NC(=O)[C@@H](N)CSSC[C@@H](C(=O)N[C@@H](CC(N)=O)C(=O)N[C@@H](CO)C(=O)N[C@@H](Cc2ccccc2)C(=O)N[C@@H](CCCNC(=N)N)C(=O)N[C@@H](Cc2ccc(O)cc2)C(=O)N[C@H](C(=O)N[C@@H](CCC(N)=O)C(=O)N[C@@H](CCC(N)=O)C(=O)N[C@@H](CCCNC(=N)N)C(=O)N[C@@H](CCCCN)C(=O)N[C@@H](CCC(=O)O)C(=O)N[C@@H](CO)C(=O)N[C@@H](CCCCN)C(=O)N[C@@H](CCCCN)C(=O)N2CCC[C@H]2C(=O)N2CCC[C@H]2C(=O)N[C@@H](C)C(=O)N[C@@H](CCCCN)C(=O)N[C@@H](CC(C)C)C(=O)N[C@@H](CCC(N)=O)C(=O)N2CCC[C@H]2C(=O)N[C@@H](CCCNC(=N)N)C(=O)O)C(C)C)NC(=O)CNC(=O)[C@H](CC(C)C)NC(=O)CNC(=O)[C@H](CO)NC(=O)[C@H](CCC(N)=O)NC(=O)[C@H](C)NC(=O)CNC1=O [Chimeric ANP (A)] (H-CFGGRMDRIGAQSGLGCNSFRYVQQRKESKKPPAKLQPR-OH; disulfide 1-17; N-terminus and C-terminus assumed)	196 ng·h/mL	1240 ± 71 ng/mL	24 ± 2.5 min	34 ng·h/mL	63.3 ± 31.8 ng/mL	5 min	46.4 ± 8 min	rising concentration in plasma	rising concentration in plasma
CC[C@H](C)[C@@H]1NC(=O)[C@H](CCCNC(=N)N)NC(=O)[C@H](CC(=O)O)NC(=O)[C@H](CCSC)NC(=O)[C@H](CCCNC(=N)N)NC(=O)CNC(=O)CNC(=O)[C@H](Cc2ccccc2)NC(=O)[C@@H](NC(=O)[C@H](CCCNC(=N)N)NC(=O)[C@@H]2CCCN2C(=O)[C@H](CCC(N)=O)NC(=O)[C@H](CC(C)C)NC(=O)[C@H](CCCCN)NC(=O)[C@H](C)NC(=O)[C@@H]2CCCN2C(=O)[C@@H]2CCCN2C(=O)[C@H](CCCCN)NC(=O)[C@H](CCCCN)NC(=O)[C@H](CO)NC(=O)[C@H](CCC(=O)O)NC(=O)[C@H](CCCCN)NC(=O)[C@H](CCCNC(=N)N)NC(=O)[C@H](CCC(N)=O)NC(=O)[C@H](CCC(N)=O)NC(=O)[C@@H](N)C(C)C)CSSC[C@@H](C(=O)N[C@@H](CC(N)=O)C(=O)N[C@@H](CO)C(=O)N[C@@H](Cc2ccccc2)C(=O)N[C@@H](CCCNC(=N)N)C(=O)N[C@@H](Cc2ccc(O)cc2)C(=O)O)NC(=O)CNC(=O)[C@H](CC(C)C)NC(=O)CNC(=O)[C@H](CO)NC(=O)[C@H](CCC(N)=O)NC(=O)[C@H](C)NC(=O)CNC1=O [Chimeric ANP (B)] (H-VQQRKESKKPPAKLQPRCFGGRMDRIGAQSGLGCNSFRY-OH; disulfide 18-34; N-terminus and C-terminus assumed)	175 ng·h/mL	1570 ± 361 ng/mL	40 ± 12.4 min	66.4 ng·h/mL	64.5 ± 40.7 ng/mL	16.7 min	57.3 ± 7.1 min	rising concentration in plasma	rising concentration in plasma

Reference: patent US8551937B2, “Peptide having an extending action for half-life of object peptide in plasma” (priority 2008, dated 2013)
